Where a name gives a salt, the structure may show the parent alone.
Tests used:
[1] = Determination of the threshold concentration (taste testers, Schutz and Pilgrim method); design: key: mean of 5 testers; 0 = not sweet, 3 = very sweet
Description: From novel compounds A, B, C, D, E and F and from known comparison compounds U, V and W aqueous solutions in concentrations of 1:12500, 1:25000, 1:50000, 1:100000 and 1:200000 were prepared and evaluated by each of 5 taste testers according to the following criteria: Very sweet (=3 points); medium sweet (=2 points), slightly sweet (=1 point) and not sweet (=0 point). The tests were carried out according to the method of H. G. Schutz and F. J. Pilgrim [Food Research 22, 206 (1957)]. The dilution with perceptible sweetness was defined as the concentration at which the average value reached the evaluation points 1.0 or higher.

[2] = Evaluation of taste quality
Text: They often have a side-taste or after-taste. Novel compounds A to F are, however, characterized by a very pure sweet taste.

[3] = tested on: mice; assay: Rotating cylinder test, muscle-relaxing and coordination inhibitory effects; type: in vivo; conditions: 200 mgm/kg p.o.
[4] = tested on: mice; assay: Spontaneous motility in light beam cages; type: in vivo; conditions: same dosage (200 mgm/kg p.o.)
[5] = tested on: rats; assay: Spontaneous motility in electric activity cages (Fuhrer and Feldhofer); type: in vivo
Description: (§1) Also, the test of the motility of rats in electric activity cages according to Fuhrer and Feldhofer [Arzneim. Forsch. […] Moreover, no effect regarding the body temperatures of the rats at a dosage of 200 mg/kg p.o. could be observed. The measurements were made after 1, 2, 3 and 4 hours after oral administration of the substance; one control group only received the distilled water solvent.

[6] = Body temperature; type: in vivo; conditions: rats, 200 mg/kg p.o.; 1, 2, 3 and 4 hours after administration
Description: as §1

[7] = tested on: mice; assay: Hexobarbital narcosis, loss of the righting reflex; type: in vivo; conditions: 25 mgm/kg p.o.
Text: Compound C has no effect on the hexobarbital narcosis in mice.

[8] = tested on: mice; assay: Tail clamp test according to Haffner, defensive reactions to pain stimuli; type: in vivo; conditions: 200 mgm/kg p.o.
[9] = tested on: mice; assay: Electroshock convulsion; type: in vivo; conditions: 200 mgm/kg p.o.
[10] = tested on: male mice; assay: Hypothermia caused by reserpine; type: in vivo
Text: It also has no influence on the hypothermia of male mice, which is caused by reserpine.

[11] = tested on: intestinal tract of the rat; assay: Ulcerations in the intestinal tract; type: in vivo; conditions: 3 times 200 mgm/kg p.o.
[12] = tested on: eye of the rabbit; assay: Local compatibility in the eye; type: in vivo; conditions: 1% solution
[13] = tested on: isolated, beating atrium of the rat heart; assay: Isolated, beating atrium
Description: (§2) The compound C had no effect on the contractility and the frequency of the isolated, beating atrium of the rat heart. When compound C was given in doses of 1.0 and 3.0 and 10.0 mg/kg i.v. no effect on blood pressure, heart rate and respiration of anesthetized cats could be observed. At concentrations of 1×10^-4 mol/liter compound C had no effect on the ADP-induced, thrombine-induced and collagen-induced aggregation of the thrombozytes in the platelet-rich plasma of healthy test persons.

[14] = tested on: anesthetized cats; assay: Blood pressure, heart rate and respiration of anesthetized cats; type: in vivo; conditions: anesthetized cats, 1.0, 3.0 and 10.0 mg/kg i.v.
Description: as §2

[15] = tested on: thrombozytes in the platelet-rich plasma of healthy test persons; assay: Thrombozyte aggregation in platelet-rich plasma; type: cell-based; conditions: 1×10^-4 mol/liter
Description: as §2

[16] = tested on: water-loaded male rats; assay: Secretion of Na+, K+, Cl- and liquid in water-loaded rats; type: in vivo; conditions: 200 mgm/kg p.o.
[17] = tested on: bacteria; assay: Bacteriostatic effect
[18] = tested on: fungi; assay: Fungistatic effect
[19] = tested on: rat; assay: Orienting acute toxicity, oral, rat; type: in vivo; conditions: 5000 mgm/kg oral, 6 animals
Description: The acute toxicity was determined after oral administration to male and female mice and to male and female rats. The substances were given in an aqueous solution or as a suspension in tylose.

[20] = tested on: Salmonella typhimurium TA 98, TA 100, TA 1535, TA 1537, TA 1538; assay: AMES-system, test for mutagenic effects, Salmonella typhimurium; type: cell-based
Description: Compounds C and D were tested in the AMES-system [Mutation Research 31, 347-364 (1975)] with regard to their mutagenic properties. In order to show the whole spectrum of induced molecular DNA-damages (base substitutions, frame-shift mutations, deletions) the auxotrophic bacterial strains Salmonella typhimurium TA 98, TA 100 and Escherichia coli WP 2 (P) were used as genetic indicators. The strains Salmonella typhimurium TA 1535, TA 1537 and TA 1538 were additionally used in the test of compound C.
The test for all microorganisms were carried out in a way such that the influence of a microsomal enzyme system, together with the corresponding co-factors, could be tested with regard to the test substance, and to determine the differences in enzyme induction. The tests were performed without an activating system and in the presence of an activating system. For the in vitro-activation, S-9 supernatants (fraction of the endoplasmatic reticulum) of normal, i.e. not pre-treated rats and of Aroclor 1254 (500 mg/kg) induced rats were used. From the S-9 induced fraction, 3 different concentration levels were tested.
(§3) The substance concentrations of compound C were 0.1 and 0.5 mgm/plate and the concentrations of compound D were 5, 10, 15 and 20 mg/plate.

[21] = tested on: Escherichia coli WP 2 (P); assay: AMES-system, test for mutagenic effects, Escherichia coli; type: cell-based
Description: In order to show the whole spectrum of induced molecular DNA-damages (base substitutions, frame-shift mutations, deletions) the auxotrophic bacterial strains Salmonella typhimurium TA 98, TA 100 and Escherichia coli WP 2 (P) were used as genetic indicators.
The test for all microorganisms were carried out in a way such that the influence of a microsomal enzyme system, together with the corresponding co-factors, could be tested with regard to the test substance, and to determine the differences in enzyme induction. The tests were performed without an activating system and in the presence of an activating system. […] From the S-9 induced fraction, 3 different concentration levels were tested.

[22] = tested on: microorganism growth; assay: Series dilution essay, inhibition of the microorganism growth; type: cell-based; conditions: highest dosages (C 0.5 mgm/plate, D 20 mg/plate)
Description: as §3

[23] = Determination of the relative sweetening power in comparison to saccharose (taste testers, 3% saccharose solution); conditions: compared with 3% aqueous solution of saccharose
Text: The relative sweetening power (often also defined as degree of sweetness) of sweetening agents in comparison to saccharose (cane sugar) varies with the concentrations within wide limits. Thus, in the usual concentrations (corresponding to a 2-10% solution of saccharose) the relative sweetening power of saccharin varies from 200 to 700. Therefore, for the determination of the relative sweetening power of the above-mentioned compounds a 3% aqueous solution of saccharose was always used for comparison.
The further determination of the relative sweetening power was continued according to the methods of R. Pauli [Chemiker Zeitung 44, 744 (1920)] and T. Paul [Chemiker-Zeitung 45 38 (1921)]. Each test series was tested by 4 taste testers.

[24] = usual concentrations, corresponding to a 2-10% solution of saccharose; cited from earlier work
[25] = heretofore known sweetening agents; cited from earlier work
[26] = Batzinger, On and Bueding, Science 198, 944 (1977); cited from earlier work

Cc1cc2c(s1)S(=O)(=O)NC2=O [Compound C, 5-Methyl-thieno[3,2-d]isothiazole-3-(2H)-one-1,1-dioxide sodium salt]
Average Value of Evaluation Points ([1]; concentration 1:25000, sodium salt): 2.0
Average Value of Evaluation Points ([1]; concentration 1:50000, sodium salt): 1.2
taste quality compared with saccharose (cane sugar) [2]: achieve the taste quality of saccharose
ability to hold themselves in rotating cylinders [3]: able to hold themselves in rotating cylinders
muscle-relaxing and coordination inhibitory effects [3]: no muscle-relaxing and coordination inhibitory effects
influence on spontaneous motility [4]: does not influence the spontaneous motility of mice
effect on spontaneous motility [5]: did not show any effect on the spontaneous motility
effect on body temperature [6]: no effect
duration of hexobarbital narcosis (loss of the righting reflex) [7]: not influenced
influence on the defensive reactions to pain stimuli [8]: did not show any influence
influence on electroshock convulsion [9]: does not influence
influence on reserpine hypothermia [10]: no influence
ulcerations in the intestinal tract [11]: does not cause any ulcerations
local anesthesia [12]: no local anesthesia
mydriasis [12]: no mydriasis
redness of the conjunctiva [12]: no redness of the conjunctiva
effect on contractility [13]: no effect
effect on frequency [13]: no effect
effect on blood pressure [14]: no effect
effect on heart rate [14]: no effect
effect on respiration [14]: no effect
effect on ADP-induced aggregation of thrombozytes [15]: no effect
effect on collagen-induced aggregation of thrombozytes [15]: no effect
effect on thrombine-induced aggregation of thrombozytes [15]: no effect
secretion of Cl^- [16]: no effect
secretion of K^+ [16]: no effect
secretion of Na^+ [16]: no effect
secretion of liquid [16]: no effect
bacteriostatic effect [17]: neither bacteriostatically nor fungistatically effective
fungistatic effect [18]: neither bacteriostatically nor fungistatically effective
Animals which died within the observation time, 1 day [19]: 0 animals
Animals which died within the observation time, 7 days [19]: 0 animals
release of base substitutions ([20]; S. typhimurium TA 1535, TA 100): do not release base substitutions
release of frame-shift mutations ([20]; S. typhimurium TA 1537, TA 1538, TA 98): do not release
increase in the spontaneous mutation rate ([20]; Salmonella strains, C 0.1 and 0.5 mgm/plate, D 5-20 mg/plate, with and without activating system): did not lead to an increase
colonies counted on the substance plates ([20]; all test strains): within the spontaneous range
effect of the enzyme induction and of the activating fraction on the reverse mutation rate ([20]; all tested strains, S-9 of normal and Aroclor 1254 induced rats): not detectable
mutagenic potential ([20]; conclusion over all tested strains): do not indicate a mutagenic potential
release of base substitutions ([21]; E. coli WP2 (P)): do not release base substitutions
increase in the spontaneous mutation rate ([21]; E. coli WP 2 (P), C 0.1 and 0.5 mgm/plate, D 5-20 mg/plate, with and without activating system): did not lead to an increase
inhibition of the microorganism growth [22]: did not show any inhibition

O=C1NS(=O)(=O)c2ccccc21 [V, Saccharin, reference compound]
Average Value of Evaluation Points ([1]; concentration 1:25000): 2.4
Average Value of Evaluation Points ([1]; concentration 1:50000): 1.2
Average Value of Evaluation Points ([1]; concentration 1:100000): 0.4
Relative Sweetening Power (Saccharose = 1) [23]: 550
relative sweetening power of saccharin [24]: 200 to 700
side-taste or after-taste [25]: unpleasant after-taste
taste quality compared with saccharose [25]: do not have the taste quality of saccharose
mutagenic effect [26]: shows a mutagenic effect

From patent US4430355A, “Condensed isothiazolo-3 (2H)-one-1-1-dioxides” (priority 1977, dated 1984)
